Data reported in patent publication US10357481B2 (MERCK SHARP & DOHME CORP., priority 2015, dated 2019).

Biological target: T1, human PDE2A1 (Homo sapiens, UniProt O00408)
T1 construct: GST; purchased BPS Bioscience (San Diego, Calif.) 60020; host or cells: insect cells
Assay: IMAP FP PDE selectivity panel, human PDE2A1
Format: biochemical
Settings: Lab B; read-out: Human PDE2 Ki (nM) Lab B
How it was run: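 Human PDE2A1 tested alongside PDE1–11 by IMAP fluorescence polarization at room temperature. Substrate was 50 nM FAM-cAMP plus 1000 nM cGMP, buffer pH 7.2 with MgCl2 and DTT, enzyme set for 20% conversion. Ten 3-fold compound dilutions; 60 min reaction, then IMAP binding solution, 1 h, parallel/perpendicular fluorescence read.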

T1 sequence (O00408 1-920 isoform O00408-2): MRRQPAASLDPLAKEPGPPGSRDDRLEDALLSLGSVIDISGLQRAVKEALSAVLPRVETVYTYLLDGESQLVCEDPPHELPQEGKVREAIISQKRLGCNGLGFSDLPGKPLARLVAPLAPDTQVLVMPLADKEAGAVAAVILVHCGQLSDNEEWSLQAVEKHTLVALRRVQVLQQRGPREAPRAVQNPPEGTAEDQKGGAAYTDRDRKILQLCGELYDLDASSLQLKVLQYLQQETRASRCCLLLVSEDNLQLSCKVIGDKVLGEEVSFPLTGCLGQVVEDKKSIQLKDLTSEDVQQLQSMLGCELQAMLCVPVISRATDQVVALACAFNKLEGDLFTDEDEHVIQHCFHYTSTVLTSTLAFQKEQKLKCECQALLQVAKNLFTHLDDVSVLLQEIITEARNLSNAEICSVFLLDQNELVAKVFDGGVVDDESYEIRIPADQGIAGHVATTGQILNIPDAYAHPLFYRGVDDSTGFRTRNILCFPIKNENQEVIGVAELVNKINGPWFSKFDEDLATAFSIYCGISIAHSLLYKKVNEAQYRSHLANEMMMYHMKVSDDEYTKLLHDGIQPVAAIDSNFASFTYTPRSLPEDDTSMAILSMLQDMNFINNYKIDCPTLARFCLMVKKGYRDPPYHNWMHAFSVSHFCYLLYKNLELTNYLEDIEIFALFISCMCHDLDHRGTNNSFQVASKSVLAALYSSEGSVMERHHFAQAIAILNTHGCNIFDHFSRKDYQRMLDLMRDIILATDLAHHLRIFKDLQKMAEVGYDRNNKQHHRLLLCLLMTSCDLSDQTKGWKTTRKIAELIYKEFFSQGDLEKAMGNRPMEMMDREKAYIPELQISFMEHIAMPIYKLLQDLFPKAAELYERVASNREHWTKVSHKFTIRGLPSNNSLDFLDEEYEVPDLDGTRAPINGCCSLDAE

## Cc1cc(N[C@H](C)c2ccc(C(F)(F)F)c(Cl)c2)n2ncnc2n1 [Example 5, N-{(1R)-1-[3-Chloro-4-(trifluoromethyl)phenyl]ethyl}-5-methyl[1,2,4]triazolo[1,5-a] pyrimidin-7-amine]
  Ki: 113 nM

## CC(C)(O)C(Nc1cc(C(F)(F)F)nc2ncnn12)c1ccc(SC(F)(F)F)cc1 (single isomer, unassigned) [Example 221, (R)- or (S)-2-Methyl-1-(5-(trifluoromethyl)-[1,2,4]triazolo [1,5-a]pyrimidin-7-ylamino)-1-(4-(trifluoromethylthio)phenyl)propan-2-ol]
  Ki: > 2960 nM

## Cc1cc(N[C@@H](c2ccc(C(F)(F)F)cc2)C(C)(C)O)n2ncnc2c1 [Example 265, (1S)-2-Methyl-1-[(7-methyl[1,2,4]triazolo[1,5-a]pyridin-5-yl)amino]-1-[4-(trifluoromethyl)phenyl]propan-2-ol]
  Ki: 82 nM

## CC(C)(C)[C@@H](Nc1cncc2ncnn12)c1ccc(C(F)(F)F)c(F)c1 [Example 284]
  Ki: 156 nM

## CC(C)(O)C(Nc1cc(C2CC2)nc2ncnn12)c1ccc(OC(F)(F)F)cc1F (single isomer, unassigned) [Example 142, (1S or R)-1-[(5- Cyclopropyl [1,2,4]triazolo [1,5-a]pyrimidin-7-yl)amino]-1-[2-fluoro-4-(trifluoro-methoxy)phenyl]-2-methylpropan-2-ol]
  Ki: > 2960 nM

## COc1cc(C(F)(F)F)ccc1C(C)(C)Nc1cc(C)nc2ncnn12 [Example 48, N-{1-[2-Methoxy-4-(trifluoromethyl)phenyl]-1-methylethyl}-5-methyl [1,2,4]triazolo[1,5-a]pyrimidin-7-amine]
  Ki: 474 nM

## CC(C)(O)C(Nc1cc(C(F)F)nc2ncnn12)c1ccc(OC(F)F)c(F)c1 (single isomer, unassigned) [Example 190, (1R or S)-[4-(Difluoromethoxy)-3-fluorophenyl]-1-{[5-(difluoromethyl) [1,2,4]triazolo [1,5-a]pyrimidin-7-yl]amino}-2-methylpropan-2-ol]
  Ki: > 2960 nM

## CC(C)(O)[C@@H](Nc1cc(C(F)F)cc2ncnn12)c1ccc(OC(F)(F)F)c(F)c1 [Example 279, (S)-1-((7-(Difluoromethyl)-[1,2,4]triazolo[1,5-a]pyridin-5-yl)amino)-1-(3-fluoro-4-(trifluoromethoxy)phenyl)-2-methylpropan-2-ol]
  Ki: 41 nM

## Fc1cc(C2(Nc3cc(C(F)(F)F)nc4ncnn34)CC2)ccc1C(F)(F)F [Example 82, N-{1-[3-Fluoro-4-(trifluoromethyl)phenyl]cyclopropyl}-5-(trifluoromethyl)-[1,2,4]triazolo[1,5-a]pyrimidin-7-amine]
  Ki: 10 nM

## Cc1cc(N[C@@H](c2ccc(SC(F)(F)F)c(F)c2)C(C)C)n2ncnc2n1 [Example 21, N-[(1R)-1-{3-Fluoro-4-[(trifluoromethyl)sulfanyl]phenyl}-2-methylpropyl]-5-methyl[1,2,4]triazolo[1,5-a] pyrimidin-7-amine]
  Ki: 4 nM

## Cc1cc(N[C@@H](c2ccc(SC(F)(F)F)cc2)C2CC2)n2ncnc2n1 [Example 40, N-[(R)-Cyclopropyl{4-[(trifluoromethyl)sulfanyl]phenyl}methyl]-5-methyl[1,2,4]triazolo[1,5-a] pyrimidin-7-amine]
  Ki: 14 nM

## Cc1cc(N[C@H](C)c2ccc(C(F)(F)F)cc2)n2ncnc2n1 [Example 1, 5-Methyl-N-{(1R)-1-[4-(trifluoromethyl)phenyl]ethyl}[1,2,4]triazolo[1,5-a]pyrimidin-7-amine]
  Ki: 175 nM

## CC(C)(O)C(Nc1cc(C(F)(F)F)nc2ncnn12)c1ccc(OC(F)F)cc1 (single isomer, unassigned) [Example 165, (1S or R)-1-[4-(Difluoromethoxy)phenyl]-2-methyl-1-{[5-(trifluoromethyl) [1,2,4]triazolo [1,5-a]pyrimidin-7-yl]amino} propan-2-ol]
  Ki: 52 nM

## CCCc1nc2nc(C)cc(NC3(c4ccc(C(F)(F)F)c(F)c4)CC3)n2n1 [Example 194, N-(1-(3-Fluoro-4-(trifluoromethyl)phenyl)cyclopropyl)-5-methyl-2-propyl-[1,2,4]triazolo [1,5-a]pyrimidin-7-amine]
  Ki: 113 nM

## CNc1nc2nc(C)cc(NC3(c4ccc(C(F)(F)F)c(F)c4)CC3)n2n1 [Example 257, N^7-{1-[3-Fluoro-4-(trifluoromethyl)phenyl]cyclopropyl}-N^2,5-dimethyl[1,2,4]triazolo[1,5-a]pyrimidine-2,7-diamine]
  Ki: 10 nM

## Cc1cc(N[C@@H](c2ccc(OC(F)(F)F)c(Cl)c2)C(C)(C)O)n2ncnc2n1 [Example 102, (1S)-1-[3-Chloro-4-(trifluoromethoxy)phenyl]-2-methyl-1-[(5-methyl[1,2,4]triazolo[1,5-a]pyrimidin-7-yl)amino]propan-2-ol]
  Ki: 14 nM

## Cc1cc(NC(c2ccc(C(F)(F)F)cn2)C(C)C)n2ncnc2n1 (single isomer, unassigned) [Example 211, (R)- or (S)-5-Methyl-N-(2-methyl-1-(5-(trifluoromethyl)pyridin-2-yl)propyl)-[1,2,4] triazolo[1,5-a] pyrimidin-7-amine]
  Ki: ~2480 nM

## Cc1cc(N[C@@H](c2ccc(C(F)(F)F)c(F)c2)C(C)(C)C)n2nc(C(F)F)nc2n1 [Example 207, (R)-2-(Difluoromethyl)-N-(1-(3-fluoro-4-(trifluoromethyl)phenyl)-2,2-dimethylpropyl)-5-methyl-[1,2,4]triazolo [1,5-a]pyrimidin-7-amine]
  Ki: 74 nM

## CC(C)(O)[C@@H](Nc1cc(C(F)(F)F)nc2ncnn12)c1ccc(S(F)(F)(F)(F)F)cc1 (single isomer, unassigned) [Example 177]
  Ki: 8.4 nM

## C[C@@H](Nc1cc(CO)cc2ncnn12)c1ccc(C(F)(F)F)cc1 [Example 267, [5-({(1R)-1-[4-(Trifluoromethyl)phenyl]ethyl}amino)[1,2,4]triazolo[1,5-a]pyridin-7-yl] methanol]
  Ki: 236 nM

## OCCc1cc(NC2(c3ccc(C(F)(F)F)c(F)c3)CC2)n2ncnc2n1 [Example 251, 2-(7-(1-(3-Fluoro-4-(trifluoromethyl)phenyl)cyclopropylamino)-[1,2,4]triazolo[1,5-a]pyrimidin-5-yl)ethanol]
  Ki: 140 nM

## Cc1cc(N[C@@H](c2ccc(OC(F)(F)F)c(F)c2)C(C)(C)C)n2ncnc2n1 [Example 28, N-{(1R)-1-[3-Fluoro-4-(trifluoromethoxy)phenyl]-2,2-dimethylpropyl}-5-methyl[1,2,4]triazolo[1,5-a] pyrimidin-7-amine]
  Ki: 7.1 nM

## CC(C)(O)C(Nc1cc(C(F)F)nc2ncnn12)c1ccc(OC(F)(F)F)cc1F (single isomer, unassigned) [Example 186, (1R or S)-{[5-(Difluoromethyl) [1,2,4]triazolo [1,5-a]pyrimidin-7-yl]amino}-1-[2-fluoro-4-(trifluoromethoxy)phenyl]-2-methylpropan-2-ol]
  Ki: 1900 nM

## Cc1cc(NC(c2cc3ccccc3n2C)C(C)(C)O)n2ncnc2n1 (single isomer, unassigned) [Example 124, (1S or R)-2-Methyl-1-(1-methyl-1H-indol-2-yl)-1-[(5-methyl [1,2,4]triazolo [1,5-a]pyrimidin-7-yl)amino] propan-2-ol]
  Ki: 79 nM

## CC[C@@H](Nc1cc(CO)cc2ncnn12)c1ccc(C(F)(F)F)c(F)c1 [Example 269, [5-({(1R)-1-[3-Fluoro-4-(trifluoromethyl)phenyl]propyl}amino)[1,2,4]triazolo [1,5-a]pyridin-7-yl] methanol]
  Ki: 181 nM

## Cc1cc(N[C@@H](c2ccc(C(F)(F)F)c(F)c2)C(C)(C)C)n2nc(CCCO)nc2n1 [Example 249, (R)-3-(7-(1-(3-Fluoro-4-(trifluoromethyl)phenyl)-2,2-dimethylpropylamino)-5-methyl-[1,2,4]triazolo[1,5-a]pyrimidin-2-yl)propan-1-ol]
  Ki: 40 nM

## Cc1cc(NC2(c3ccc(SC(F)(F)F)cc3)CCC2)n2ncnc2n1 [Example 65, 5-Methyl-N-(1-{4-[(trifluoromethyl)sulfanyl]phenyl}cyclobutyl)[1,2,4] triazolo[1,5-a]pyrimidin-7-amine]
  Ki: 75 nM

## Cc1cc(N[C@H](c2ccc(OC(F)(F)F)c(F)c2)C(C)(C)O)n2ncnc2n1 (single isomer, unassigned) [Example 91]
  Ki: > 2960 nM

## Cc1cc(NC(C)(C)c2ccc(OC(F)(F)F)cc2)n2ncnc2n1 [Example 49, 5-Methyl-N-{1-methyl-1-[4-(trifluoromethoxy)phenyl]ethyl} [1,2,4]triazolo[1,5-a]pyrimidin-7-amine]
  Ki: 301 nM

## COCC(Nc1cc(C(F)(F)F)nc2ncnn12)c1ccc(C(F)(F)F)c(F)c1 (single isomer, unassigned) [Example 218, (S)- or (R)-N-(1-(3-Fluoro-4-(trifluoromethyl)phenyl)-2-methoxyethyl)-5-(trifluoromethyl)-[1,2,4]triazolo [1,5-a]pyrimidin-7-amine]
  Ki: > 2960 nM

## CC(C)(C)c1cc(NC(c2ccc(OC(F)(F)F)c(F)c2)C(C)(C)O)n2ncnc2n1 (single isomer, unassigned) [Example 146, (1S or R)-1-[(5-tert-Butyl[1,2,4]triazolo[1,5-a]pyrimidin-7-yl)amino]-1-[3-fluoro-4-(trifluoro-methoxy)phenyl]-2-methylpropan-2-ol]
  Ki: > 2960 nM

## CC(C)(C)c1cc(NC(c2ccc(S(F)(F)(F)(F)F)cc2)C(C)(C)O)n2ncnc2n1 (single isomer, unassigned) [Example 150, (1S or R)-1-[(5-tert-Butyl[1,2,4]triazolo[1,5-a]pyrimidin-7-yl)amino]-2-methyl-1-[4-(pentafluoro-λ^6-sulfanyl)phenyl] propan-2-ol]
  Ki: > 2960 nM

## CC(C)(O)C(Nc1cc(C(F)(F)F)nc2ncnn12)c1ccc(C(F)(F)F)c(F)c1 (single isomer, unassigned) [Example 214, (S)- or (R)-1-(3-Fluoro-4-(trifluoromethyl)phenyl)-2-methyl-1-(5-(trifluoromethyl)-[1,2,4]triazolo [1,5-a]pyrimidin-7-ylamino)propan-2-ol]
  Ki: 25 nM
